Reference: the NIST ThermoML archive (doi:10.1021/je301282p)
± gives the expanded uncertainty stated by the source.

Legend:
[1] = 308.15 K, Drop volume
[2] = xn = mol fraction of the nth substance listed; details: 308.15 K, Drop volume

## Cc1ccc(C)cc1 [1,4-dimethylbenzene]
[1]
  surface tension liquid-gas: 26.29 ± 0.23 mN/m

## Cc1ccc(C)cc1 [1,4-dimethylbenzene] + CCCCCCCC
[2]; x1 = 0.0488
  surface tension liquid-gas: 20.02 ± 0.24 mN/m
[2]; x1 = 0.109
  surface tension liquid-gas: 20.25 ± 0.24 mN/m
[2]; x1 = 0.1953
  surface tension liquid-gas: 20.52 ± 0.24 mN/m
[2]; x1 = 0.2973
  surface tension liquid-gas: 20.96 ± 0.24 mN/m
[2]; x1 = 0.3959
  surface tension liquid-gas: 21.41 ± 0.25 mN/m
[2]; x1 = 0.4978
  surface tension liquid-gas: 21.91 ± 0.25 mN/m
[2]; x1 = 0.5503
  surface tension liquid-gas: 22.2 ± 0.25 mN/m
[2]; x1 = 0.5935
  surface tension liquid-gas: 22.46 ± 0.25 mN/m
[2]; x1 = 0.6966
  surface tension liquid-gas: 23.11 ± 0.26 mN/m
[2]; x1 = 0.8004
  surface tension liquid-gas: 23.93 ± 0.26 mN/m
[2]; x1 = 0.9017
  surface tension liquid-gas: 24.92 ± 0.27 mN/m
[2]; x1 = 0.9504
  surface tension liquid-gas: 25.5 ± 0.27 mN/m

## Cc1ccc(C)cc1 [1,4-dimethylbenzene] + CCCCCCCCCC
[2]; x1 = 0.1047
  surface tension liquid-gas: 22.18 ± 0.26 mN/m
[2]; x1 = 0.2152
  surface tension liquid-gas: 22.39 ± 0.26 mN/m
[2]; x1 = 0.2977
  surface tension liquid-gas: 22.57 ± 0.26 mN/m
[2]; x1 = 0.3945
  surface tension liquid-gas: 22.79 ± 0.26 mN/m
[2]; x1 = 0.4993
  surface tension liquid-gas: 23.11 ± 0.26 mN/m
[2]; x1 = 0.549
  surface tension liquid-gas: 23.28 ± 0.26 mN/m
[2]; x1 = 0.5997
  surface tension liquid-gas: 23.46 ± 0.27 mN/m
[2]; x1 = 0.7004
  surface tension liquid-gas: 23.88 ± 0.27 mN/m
[2]; x1 = 0.8018
  surface tension liquid-gas: 24.47 ± 0.27 mN/m
[2]; x1 = 0.9004
  surface tension liquid-gas: 25.2 ± 0.27 mN/m
[2]; x1 = 0.9501
  surface tension liquid-gas: 25.67 ± 0.27 mN/m

## Cc1ccc(C)cc1 [1,4-dimethylbenzene] + COC(=O)OC
[2]; x2 = 0.0503
  surface tension liquid-gas: 26.19 ± 0.27 mN/m
[2]; x2 = 0.1937
  surface tension liquid-gas: 25.97 ± 0.27 mN/m
[2]; x2 = 0.2988
  surface tension liquid-gas: 25.84 ± 0.27 mN/m
[2]; x2 = 0.4013
  surface tension liquid-gas: 25.76 ± 0.27 mN/m
[2]; x2 = 0.5016
  surface tension liquid-gas: 25.7 ± 0.27 mN/m
[2]; x2 = 0.6032
  surface tension liquid-gas: 25.67 ± 0.27 mN/m
[2]; x2 = 0.7029
  surface tension liquid-gas: 25.67 ± 0.27 mN/m
[2]; x2 = 0.7964
  surface tension liquid-gas: 25.74 ± 0.27 mN/m
[2]; x2 = 0.8945
  surface tension liquid-gas: 25.98 ± 0.27 mN/m
[2]; x2 = 0.9442
  surface tension liquid-gas: 26.13 ± 0.27 mN/m

## CCCCCCCCCC [decane]
[1]
  surface tension liquid-gas: 22.1 ± 0.21 mN/m

## CCCCCCCCCC [decane] + COC(=O)OC
[2]; x2 = 0.0512
  surface tension liquid-gas: 21.95 ± 0.26 mN/m
[2]; x2 = 0.09
  surface tension liquid-gas: 21.92 ± 0.26 mN/m
[2]; x2 = 0.2006
  surface tension liquid-gas: 21.9 ± 0.26 mN/m
[2]; x2 = 0.2853
  surface tension liquid-gas: 21.92 ± 0.26 mN/m
[2]; x2 = 0.3971
  surface tension liquid-gas: 21.97 ± 0.26 mN/m
[2]; x2 = 0.4949
  surface tension liquid-gas: 22.11 ± 0.26 mN/m
[2]; x2 = 0.5987
  surface tension liquid-gas: 22.01 ± 0.26 mN/m
[2]; x2 = 0.6988
  surface tension liquid-gas: 22.18 ± 0.26 mN/m
[2]; x2 = 0.7971
  surface tension liquid-gas: 22.54 ± 0.26 mN/m
[2]; x2 = 0.8983
  surface tension liquid-gas: 23.81 ± 0.27 mN/m
[2]; x2 = 0.9505
  surface tension liquid-gas: 24.82 ± 0.27 mN/m

## CCOC(=O)OCC [diethyl carbonate]
[1]
  surface tension liquid-gas: 24.02 ± 0.19 mN/m

## CCOC(=O)OCC [diethyl carbonate] + CCCCCCCC
[2]; x1 = 0.049
  surface tension liquid-gas: 19.83 ± 0.24 mN/m
[2]; x1 = 0.1008
  surface tension liquid-gas: 19.89 ± 0.24 mN/m
[2]; x1 = 0.2
  surface tension liquid-gas: 19.91 ± 0.24 mN/m
[2]; x1 = 0.2969
  surface tension liquid-gas: 20.05 ± 0.24 mN/m
[2]; x1 = 0.3972
  surface tension liquid-gas: 20.26 ± 0.24 mN/m
[2]; x1 = 0.4971
  surface tension liquid-gas: 20.5 ± 0.24 mN/m
[2]; x1 = 0.5495
  surface tension liquid-gas: 20.63 ± 0.24 mN/m
[2]; x1 = 0.5991
  surface tension liquid-gas: 20.79 ± 0.24 mN/m
[2]; x1 = 0.695
  surface tension liquid-gas: 21.16 ± 0.24 mN/m
[2]; x1 = 0.7938
  surface tension liquid-gas: 21.7 ± 0.24 mN/m
[2]; x1 = 0.8978
  surface tension liquid-gas: 22.63 ± 0.24 mN/m
[2]; x1 = 0.9504
  surface tension liquid-gas: 23.33 ± 0.24 mN/m

## CCOC(=O)OCC [diethyl carbonate] + CCCCCCCCCC
[2]; x1 = 0.0512
  surface tension liquid-gas: 21.9 ± 0.26 mN/m
[2]; x1 = 0.0983
  surface tension liquid-gas: 21.84 ± 0.26 mN/m
[2]; x1 = 0.1997
  surface tension liquid-gas: 21.75 ± 0.26 mN/m
[2]; x1 = 0.2968
  surface tension liquid-gas: 21.78 ± 0.25 mN/m
[2]; x1 = 0.406
  surface tension liquid-gas: 21.84 ± 0.25 mN/m
[2]; x1 = 0.499
  surface tension liquid-gas: 21.88 ± 0.25 mN/m
[2]; x1 = 0.5621
  surface tension liquid-gas: 21.96 ± 0.25 mN/m
[2]; x1 = 0.5994
  surface tension liquid-gas: 21.99 ± 0.25 mN/m
[2]; x1 = 0.6966
  surface tension liquid-gas: 22.19 ± 0.25 mN/m
[2]; x1 = 0.7951
  surface tension liquid-gas: 22.49 ± 0.25 mN/m
[2]; x1 = 0.9018
  surface tension liquid-gas: 23.1 ± 0.25 mN/m
[2]; x1 = 0.9511
  surface tension liquid-gas: 23.5 ± 0.25 mN/m

## CCOC(=O)OCC [diethyl carbonate] + Cc1ccc(C)cc1
[2]; x1 = 0.0995
  surface tension liquid-gas: 25.98 ± 0.27 mN/m
[2]; x1 = 0.2009
  surface tension liquid-gas: 25.68 ± 0.27 mN/m
[2]; x1 = 0.2985
  surface tension liquid-gas: 25.42 ± 0.26 mN/m
[2]; x1 = 0.3971
  surface tension liquid-gas: 25.18 ± 0.26 mN/m
[2]; x1 = 0.4956
  surface tension liquid-gas: 24.94 ± 0.26 mN/m
[2]; x1 = 0.5433
  surface tension liquid-gas: 24.83 ± 0.26 mN/m
[2]; x1 = 0.6007
  surface tension liquid-gas: 24.7 ± 0.25 mN/m
[2]; x1 = 0.6457
  surface tension liquid-gas: 24.6 ± 0.25 mN/m
[2]; x1 = 0.6995
  surface tension liquid-gas: 24.49 ± 0.25 mN/m
[2]; x1 = 0.7986
  surface tension liquid-gas: 24.3 ± 0.25 mN/m
[2]; x1 = 0.899
  surface tension liquid-gas: 24.12 ± 0.25 mN/m
[2]; x1 = 0.9497
  surface tension liquid-gas: 24.06 ± 0.25 mN/m

## COC(=O)OC [dimethyl carbonate]
[1]
  surface tension liquid-gas: 26.55 ± 0.23 mN/m

## COC(=O)OC [dimethyl carbonate] + CCCCCCCC
[2]; x1 = 0.0503
  surface tension liquid-gas: 19.8 ± 0.24 mN/m
[2]; x1 = 0.0976
  surface tension liquid-gas: 19.78 ± 0.24 mN/m
[2]; x1 = 0.196
  surface tension liquid-gas: 19.85 ± 0.24 mN/m
[2]; x1 = 0.2941
  surface tension liquid-gas: 19.93 ± 0.24 mN/m
[2]; x1 = 0.3969
  surface tension liquid-gas: 20.09 ± 0.24 mN/m
[2]; x1 = 0.495
  surface tension liquid-gas: 20.25 ± 0.25 mN/m
[2]; x1 = 0.5455
  surface tension liquid-gas: 20.39 ± 0.25 mN/m
[2]; x1 = 0.5971
  surface tension liquid-gas: 20.54 ± 0.25 mN/m
[2]; x1 = 0.6977
  surface tension liquid-gas: 20.8 ± 0.25 mN/m
[2]; x1 = 0.7977
  surface tension liquid-gas: 21.47 ± 0.25 mN/m
[2]; x1 = 0.8983
  surface tension liquid-gas: 23.04 ± 0.26 mN/m
[2]; x1 = 0.9492
  surface tension liquid-gas: 24.53 ± 0.27 mN/m

## CCCCCCCC [octane]
[1]
  surface tension liquid-gas: 19.9 ± 0.2 mN/m
